{
  "source": "patent US20220369638A1",
  "about": "“USE OF THE SUCCINATE DEHYDROGENASE INHIBITOR PYDIFLUMETOFEN FOR CONTROLLING CLAVICEPS PURPUREA AND REDUCING SCLEROTIA IN CEREALS” (Bayer Aktiengesellschaft, priority 2019, published 2022)",
  "tested_on": "Claviceps purpurea",
  "assay": "Field trials 2018 in Canada: foliar application at early flowering, sclerotia (ergot bodies) counted in harvested wheat grain",
  "format": "in vivo",
  "conditions": "75 grams/ha Pydiflumetofen, spring wheat (AC Goodeve) or durum wheat (AC Strongfield), crop per trial not stated",
  "procedure": "Pydiflumetofen as well as market standards were applied according to table 2 between Jul. 6-9, 2018 between BBCH stage 61-63 (early flowering). Assessment of sclerotia was conducted in fall 2018 on harvested grain samples. […] A mixture of Pydiflumetofen and Propiconazole is also available as a suspension concentrate 275 SC formulation (275 grams of total active ingredients) with 150 grams of Pydiflumetofen and 125 grams of Propiconazole per litre under the name […] be tested for reduction of sclerotia in cereals, in particular in spring wheat, winter wheat, durum, hybrid spring wheat, hybrid winter wheat, winter rye, spring rye, hybrid winter rye, hybrid spring rye, and […] plants.",
  "data": [
    {"compound": "CON(C(=O)c1cn(C)nc1C(F)F)C(C)Cc1c(Cl)cc(Cl)cc1Cl", "note": "(stereo not drawn) [Pydiflumetofen, 3-(difluoromethyl)-N-methoxy-1-methyl-N-[1-methyl-2-(2,4,6-trichlorophenyl)ethyl]-1H-pyrazole-4-carboxamide]", "values": [
      {"measurement": "Trial No 1 number of Ergot bodies per kg seed", "setting": "applied BBCH 61-63, untreated 0.5", "value": 0.5, "unit": "per kg seed"},
      {"measurement": "Trial No 3 number of Ergot bodies per kg seed", "setting": "applied BBCH 61-63, untreated 1.3", "value": 0, "unit": "per kg seed"},
      {"measurement": "Trial No 2 number of Ergot bodies per kg seed", "setting": "applied BBCH 61-63, untreated 2.3", "value": 0.3, "unit": "per kg seed"}
    ]}
  ]
}
